A word on the Kd: it is a measure of binding affinity in units of concentration. The IC50 is the concentration at which inhibition is half-maximal. For orientation: inhibition means the drop in the measured response relative to a control, in per cent.

The values that follow come from ChEMBL document CHEMBL5303763, “Data for DCP probe BI-3802” (2023).

Active and inactive are the calls of the source. The rule behind the calls is not given here.

Test [1] addresses T1, B-cell lymphoma 6 protein (Homo sapiens, UniProt P41182). The test is described as follows: SPR (BCL6), Ontario institute for cancer research.
In test [2] the target is Zinc finger and BTB domain-containing protein 17 (Homo sapiens, UniProt Q13105). Description: SPR (ZBTB17), Ontario institute for cancer research.
Test [3] concerns the target 5-hydroxytryptamine receptor 1B (Homo sapiens) (UniProt P28222). Description: 5HT1B(H) Eurofins SafetyScreen44 (BI). As to conditions: filed as antagonist, Compound concentration 10.0 uM.
Test [4] has as its target Cannabinoid receptor 1 (Homo sapiens) (UniProt P21554). Description: CB1(HU)_AGON Eurofins SafetyScreen44 (BI). As to conditions: filed as agonist; Compound concentration 10.0 uM.
Test [5] deals with T1, B-cell lymphoma 6 protein. The test is described as follows: BCL6::NCOR LUMIER in cells.
The target of test [6] is Kappa-type opioid receptor (Rattus norvegicus) (UniProt P34975). The test is described as follows: KAPPA/R Eurofins SafetyScreen44 (BI). Conditions: Compound concentration 10.0 uM.
The target in test [7] is AMP-activated protein kinase (AMPK) alpha-1/beta-1/gamma-1 (Homo sapiens) (UniProt P54619+Q9Y478+Q13131). Description: AMPK A1B1G1 Invitrogen Lab (UK) kinase screen (BI). The format is protein-complex assay. As to conditions: Compound concentration 1.0 uM.
The target in test [8] is Aurora kinase B (Homo sapiens) (UniProt Q96GD4). Description: AURKB Invitrogen Lab (UK) kinase screen (BI). As to conditions: Compound concentration 1.0 uM.
Test [9] deals with Serine/threonine-protein kinase Chk1 (Homo sapiens) (UniProt O14757). Description: CHEK1 Invitrogen Lab (UK) kinase screen (BI). Conditions: Compound concentration 1.0 uM.
For test [10], the target named is Epidermal growth factor receptor (Homo sapiens) (UniProt P00533). The test is described as follows: EGFR Invitrogen Lab (UK) kinase screen (BI). Conditions: Compound concentration 1.0 uM.
The target of test [11] is Ephrin type-A receptor 2 (Homo sapiens) (UniProt P29317). The test is described as follows: EPHA2 Invitrogen Lab (UK) kinase screen (BI). As to conditions: Compound concentration 1.0 uM.
Test [12] concerns the target Fibroblast growth factor receptor 1 (Homo sapiens) (UniProt P11362). Description: FGFR1 Invitrogen Lab (UK) kinase screen (BI). As to conditions: Compound concentration 1.0 uM.
Test [13] addresses Insulin receptor (Homo sapiens) (UniProt P06213). The test is described as follows: INSR Invitrogen Lab (UK) kinase screen (BI). Conditions: Compound concentration 1.0 uM.
In test [14] the target is Vascular endothelial growth factor receptor 2 (Homo sapiens) (UniProt P35968). The test is described as follows: KDR Invitrogen Lab (UK) kinase screen (BI). As to conditions: Compound concentration 1.0 uM.
For test [15], the target named is Leucine-rich repeat serine/threonine-protein kinase 2 (Homo sapiens) (UniProt Q5S007). The test is described as follows: LRRK2 Invitrogen Lab (UK) kinase screen (BI). As to conditions: Compound concentration 1.0 uM.
For test [16], the target named is Tyrosine-protein kinase Lyn (Homo sapiens) (UniProt P07948). The test is described as follows: LYN A Invitrogen Lab (UK) kinase screen (BI). As to conditions: Compound concentration 1.0 uM.
For test [17], the target named is Mitogen-activated protein kinase kinase kinase 8 (Homo sapiens) (UniProt P41279). Description: MAP3K8 Invitrogen Lab (UK) kinase screen (BI). As to conditions: Compound concentration 1.0 uM.
Test [18] has as its target Mitogen-activated protein kinase 8 (Homo sapiens) (UniProt P45983). The test is described as follows: MAPK8 Invitrogen Lab (UK) kinase screen (BI). Conditions: Compound concentration 1.0 uM.
Test [19] has as its target MAP kinase-activated protein kinase 3 (Homo sapiens) (UniProt Q16644). The test is described as follows: MAPKAPK3 Invitrogen Lab (UK) kinase screen (BI). Conditions: Compound concentration 1.0 uM.
The target of test [20] is Myosin light chain kinase 2, skeletal/cardiac muscle (Homo sapiens) (UniProt Q9H1R3). The test is described as follows: MYLK2 Invitrogen Lab (UK) kinase screen (BI). As to conditions: Compound concentration 1.0 uM.
In test [21] the target is High affinity nerve growth factor receptor (Homo sapiens) (UniProt P04629). The test is described as follows: NTRK1 Invitrogen Lab (UK) kinase screen (BI). Conditions: Compound concentration 1.0 uM.
Test [22] deals with Serine/threonine-protein kinase PAK 4 (Homo sapiens) (UniProt O96013). The test is described as follows: PAK4 Invitrogen Lab (UK) kinase screen (BI). As to conditions: Compound concentration 1.0 uM.
Test [23] deals with Serine/threonine-protein kinase PLK1 (Homo sapiens) (UniProt P53350). The test is described as follows: PLK1 Invitrogen Lab (UK) kinase screen (BI). Conditions: Compound concentration 1.0 uM.
In test [24] the target is Focal adhesion kinase 1 (Homo sapiens) (UniProt Q05397). Description: PTK2 Invitrogen Lab (UK) kinase screen (BI). As to conditions: Compound concentration 1.0 uM.
For test [25], the target named is Ribosomal protein S6 kinase alpha-3 (Homo sapiens) (UniProt P51812). The test is described as follows: RPS6KA3 Invitrogen Lab (UK) kinase screen (BI). Conditions: Compound concentration 1.0 uM.
Test [26] concerns the target Ribosomal protein S6 kinase alpha-4 (Homo sapiens) (UniProt O75676). The test is described as follows: RPS6KA4 Invitrogen Lab (UK) kinase screen (BI). Conditions: Compound concentration 1.0 uM.
Test [27] concerns the target Ribosomal protein S6 kinase alpha-5 (Homo sapiens) (UniProt O75582). The test is described as follows: RPS6KA5 Invitrogen Lab (UK) kinase screen (BI). Conditions: Compound concentration 1.0 uM.
Test [28] has as its target SRSF protein kinase 2 (Homo sapiens) (UniProt P78362). Description: SRPK2 Invitrogen Lab (UK) kinase screen (BI). Conditions: Compound concentration 1.0 uM.
The target of test [29] is Serine/threonine-protein kinase TBK1 (Homo sapiens) (UniProt Q9UHD2). Description: TBK1 Invitrogen Lab (UK) kinase screen (BI). As to conditions: Compound concentration 1.0 uM.
Test [30] addresses 5-hydroxytryptamine receptor 2A (Homo sapiens) (UniProt P28223). As to conditions: Compound concentration 10.0 uM.
The target of test [31] is 5-hydroxytryptamine receptor 2C (Homo sapiens) (UniProt P28335). As to conditions: Compound concentration 10.0 uM.
Test [32] concerns the target T2, 5-hydroxytryptamine receptor 3A (Homo sapiens) (UniProt P46098).
T2 sequence (whole entry): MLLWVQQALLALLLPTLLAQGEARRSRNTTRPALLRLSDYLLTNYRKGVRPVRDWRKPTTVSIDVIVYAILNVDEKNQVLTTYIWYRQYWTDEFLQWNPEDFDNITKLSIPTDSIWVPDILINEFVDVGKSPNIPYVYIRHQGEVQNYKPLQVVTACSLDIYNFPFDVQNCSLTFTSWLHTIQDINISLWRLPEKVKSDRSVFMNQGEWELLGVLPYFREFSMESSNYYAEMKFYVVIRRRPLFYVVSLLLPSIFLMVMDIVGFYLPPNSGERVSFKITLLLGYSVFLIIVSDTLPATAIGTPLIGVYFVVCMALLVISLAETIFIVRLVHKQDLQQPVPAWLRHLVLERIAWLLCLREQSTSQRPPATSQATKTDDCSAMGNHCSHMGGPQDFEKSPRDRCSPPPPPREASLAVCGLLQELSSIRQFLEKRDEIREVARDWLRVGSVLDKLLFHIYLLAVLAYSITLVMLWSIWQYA
Conditions: Compound concentration 10.0 uM.

The target of test [33] is D(3) dopamine receptor (Homo sapiens) (UniProt P35462). As to conditions: Compound concentration 10.0 uM.
In test [34] the target is Mu-type opioid receptor (Homo sapiens) (UniProt P35372). As to conditions: Compound concentration 10.0 uM.
Test [35] addresses Delta-type opioid receptor (Homo sapiens) (UniProt P41143). As to conditions: Compound concentration 10.0 uM.
Test [36] deals with Muscarinic acetylcholine receptor M3 (Homo sapiens) (UniProt P20309). As to conditions: Compound concentration 10.0 uM.
Test [37] concerns the target Muscarinic acetylcholine receptor M4 (Homo sapiens) (UniProt P08173). As to conditions: Compound concentration 10.0 uM.
Test [38] has as its target Alpha-1D adrenergic receptor (Homo sapiens) (UniProt P25100). As to conditions: Compound concentration 10.0 uM.

5-hydroxytryptamine receptor 2C (Homo sapiens), sequence (P28335 whole entry): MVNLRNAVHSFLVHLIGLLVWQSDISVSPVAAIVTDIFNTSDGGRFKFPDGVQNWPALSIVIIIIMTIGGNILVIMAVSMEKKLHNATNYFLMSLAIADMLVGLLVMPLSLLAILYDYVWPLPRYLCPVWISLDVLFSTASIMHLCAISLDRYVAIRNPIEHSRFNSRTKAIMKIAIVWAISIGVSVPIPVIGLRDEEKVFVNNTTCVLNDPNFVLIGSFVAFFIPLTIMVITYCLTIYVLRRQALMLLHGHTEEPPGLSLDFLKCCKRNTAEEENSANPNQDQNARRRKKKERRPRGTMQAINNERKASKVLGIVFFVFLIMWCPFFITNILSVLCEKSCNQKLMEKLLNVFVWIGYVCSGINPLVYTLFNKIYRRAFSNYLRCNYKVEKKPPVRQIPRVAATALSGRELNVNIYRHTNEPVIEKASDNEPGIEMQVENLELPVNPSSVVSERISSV
Delta-type opioid receptor (Homo sapiens), sequence (P41143 whole entry): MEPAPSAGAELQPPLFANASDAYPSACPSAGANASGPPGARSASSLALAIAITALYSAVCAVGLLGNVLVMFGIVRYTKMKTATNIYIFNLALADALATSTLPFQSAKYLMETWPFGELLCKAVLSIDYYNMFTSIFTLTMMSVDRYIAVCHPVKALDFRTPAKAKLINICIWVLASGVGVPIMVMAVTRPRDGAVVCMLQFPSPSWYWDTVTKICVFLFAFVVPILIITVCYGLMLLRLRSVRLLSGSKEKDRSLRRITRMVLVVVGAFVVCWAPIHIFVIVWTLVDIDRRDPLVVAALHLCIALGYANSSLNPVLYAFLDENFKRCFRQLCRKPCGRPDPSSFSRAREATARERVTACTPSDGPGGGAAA
5-hydroxytryptamine receptor 2A (Homo sapiens), sequence (P28223 whole entry): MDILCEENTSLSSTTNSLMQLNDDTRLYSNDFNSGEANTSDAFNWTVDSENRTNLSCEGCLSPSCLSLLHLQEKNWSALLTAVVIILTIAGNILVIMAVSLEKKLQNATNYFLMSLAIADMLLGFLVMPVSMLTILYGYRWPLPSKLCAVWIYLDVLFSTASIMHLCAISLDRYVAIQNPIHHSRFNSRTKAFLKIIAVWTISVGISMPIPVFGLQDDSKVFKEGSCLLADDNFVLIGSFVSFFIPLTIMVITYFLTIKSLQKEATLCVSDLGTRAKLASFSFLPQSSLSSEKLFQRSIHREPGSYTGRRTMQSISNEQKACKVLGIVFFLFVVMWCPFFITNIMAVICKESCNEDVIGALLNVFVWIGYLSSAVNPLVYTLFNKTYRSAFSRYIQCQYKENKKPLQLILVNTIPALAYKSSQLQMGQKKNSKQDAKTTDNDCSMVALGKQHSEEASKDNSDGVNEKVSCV
D(3) dopamine receptor (Homo sapiens), sequence (P35462 whole entry): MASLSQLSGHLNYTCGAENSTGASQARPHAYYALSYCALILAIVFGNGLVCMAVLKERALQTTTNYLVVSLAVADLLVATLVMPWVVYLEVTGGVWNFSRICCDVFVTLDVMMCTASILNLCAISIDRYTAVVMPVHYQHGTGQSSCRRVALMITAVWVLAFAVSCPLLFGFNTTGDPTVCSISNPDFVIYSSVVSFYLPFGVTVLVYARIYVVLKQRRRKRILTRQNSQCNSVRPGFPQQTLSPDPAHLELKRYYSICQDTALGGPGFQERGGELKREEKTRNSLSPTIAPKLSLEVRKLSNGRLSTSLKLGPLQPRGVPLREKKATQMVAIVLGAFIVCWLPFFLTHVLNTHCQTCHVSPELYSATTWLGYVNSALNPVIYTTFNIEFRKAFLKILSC
Mu-type opioid receptor (Homo sapiens), sequence (P35372 whole entry): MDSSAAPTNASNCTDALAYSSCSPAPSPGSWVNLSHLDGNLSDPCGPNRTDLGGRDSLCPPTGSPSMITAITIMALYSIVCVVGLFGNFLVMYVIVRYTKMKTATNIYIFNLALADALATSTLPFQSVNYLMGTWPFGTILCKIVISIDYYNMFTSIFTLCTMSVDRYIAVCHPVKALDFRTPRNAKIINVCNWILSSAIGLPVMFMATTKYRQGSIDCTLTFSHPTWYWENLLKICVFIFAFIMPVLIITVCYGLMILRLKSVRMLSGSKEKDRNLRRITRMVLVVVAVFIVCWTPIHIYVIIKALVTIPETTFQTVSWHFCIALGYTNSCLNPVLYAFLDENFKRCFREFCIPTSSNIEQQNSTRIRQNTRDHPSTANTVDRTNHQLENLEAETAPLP
Muscarinic acetylcholine receptor M3 (Homo sapiens), sequence (P20309 whole entry, looked up): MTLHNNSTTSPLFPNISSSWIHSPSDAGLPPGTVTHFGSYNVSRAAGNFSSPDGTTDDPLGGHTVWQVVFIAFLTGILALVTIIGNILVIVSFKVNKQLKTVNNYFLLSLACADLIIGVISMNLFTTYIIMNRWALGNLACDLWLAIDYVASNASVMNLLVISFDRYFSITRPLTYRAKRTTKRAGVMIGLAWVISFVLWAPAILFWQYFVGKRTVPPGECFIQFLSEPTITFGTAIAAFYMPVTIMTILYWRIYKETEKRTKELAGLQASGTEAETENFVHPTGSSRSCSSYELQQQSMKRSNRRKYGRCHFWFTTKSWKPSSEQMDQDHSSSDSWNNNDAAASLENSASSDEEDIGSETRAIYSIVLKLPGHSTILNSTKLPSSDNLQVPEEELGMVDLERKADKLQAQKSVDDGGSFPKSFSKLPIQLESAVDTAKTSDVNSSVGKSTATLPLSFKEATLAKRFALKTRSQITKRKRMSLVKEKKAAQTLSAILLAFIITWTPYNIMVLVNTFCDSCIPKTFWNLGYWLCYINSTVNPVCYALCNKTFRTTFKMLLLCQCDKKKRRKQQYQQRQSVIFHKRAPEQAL
Alpha-1D adrenergic receptor (Homo sapiens), sequence (P25100 whole entry): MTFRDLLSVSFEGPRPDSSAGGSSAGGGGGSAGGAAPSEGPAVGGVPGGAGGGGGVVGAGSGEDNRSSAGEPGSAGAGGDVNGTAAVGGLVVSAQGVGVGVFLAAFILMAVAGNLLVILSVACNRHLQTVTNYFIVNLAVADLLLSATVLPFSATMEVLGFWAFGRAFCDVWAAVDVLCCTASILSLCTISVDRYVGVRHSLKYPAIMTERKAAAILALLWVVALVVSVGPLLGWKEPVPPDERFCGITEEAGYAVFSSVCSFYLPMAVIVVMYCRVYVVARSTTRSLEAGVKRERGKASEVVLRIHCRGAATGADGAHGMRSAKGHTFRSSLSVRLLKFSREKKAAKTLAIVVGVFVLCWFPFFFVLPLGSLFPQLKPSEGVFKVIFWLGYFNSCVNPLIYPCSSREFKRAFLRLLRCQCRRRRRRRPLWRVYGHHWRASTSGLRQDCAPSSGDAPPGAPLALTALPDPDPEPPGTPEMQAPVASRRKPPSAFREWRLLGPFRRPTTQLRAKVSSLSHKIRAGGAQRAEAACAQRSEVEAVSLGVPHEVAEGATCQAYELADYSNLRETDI
Muscarinic acetylcholine receptor M4 (Homo sapiens), sequence (P08173 whole entry): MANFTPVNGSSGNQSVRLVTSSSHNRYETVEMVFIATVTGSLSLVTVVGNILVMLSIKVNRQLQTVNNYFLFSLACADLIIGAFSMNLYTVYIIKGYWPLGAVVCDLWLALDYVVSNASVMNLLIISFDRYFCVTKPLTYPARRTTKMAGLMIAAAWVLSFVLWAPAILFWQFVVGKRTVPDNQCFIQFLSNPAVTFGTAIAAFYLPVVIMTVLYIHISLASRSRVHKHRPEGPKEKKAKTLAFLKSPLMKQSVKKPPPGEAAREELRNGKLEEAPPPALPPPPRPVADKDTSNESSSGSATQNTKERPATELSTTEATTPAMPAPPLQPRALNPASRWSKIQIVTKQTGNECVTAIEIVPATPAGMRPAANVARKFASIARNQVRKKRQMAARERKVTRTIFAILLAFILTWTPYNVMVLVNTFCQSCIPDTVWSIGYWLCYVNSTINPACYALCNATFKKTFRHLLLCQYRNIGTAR
Mitogen-activated protein kinase kinase kinase 8 (Homo sapiens), sequence (P41279 whole entry): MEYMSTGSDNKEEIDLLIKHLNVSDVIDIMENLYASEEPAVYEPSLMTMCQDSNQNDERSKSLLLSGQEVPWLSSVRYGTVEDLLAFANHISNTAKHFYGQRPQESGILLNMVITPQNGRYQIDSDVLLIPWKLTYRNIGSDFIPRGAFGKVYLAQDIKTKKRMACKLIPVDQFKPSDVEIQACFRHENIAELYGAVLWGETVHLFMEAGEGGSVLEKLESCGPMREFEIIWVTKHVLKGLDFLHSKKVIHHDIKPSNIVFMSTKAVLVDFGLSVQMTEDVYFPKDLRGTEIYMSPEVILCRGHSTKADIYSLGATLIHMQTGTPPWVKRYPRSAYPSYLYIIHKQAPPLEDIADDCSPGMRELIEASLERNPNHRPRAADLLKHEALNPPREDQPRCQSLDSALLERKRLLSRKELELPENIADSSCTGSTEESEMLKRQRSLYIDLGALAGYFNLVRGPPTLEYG
Serine/threonine-protein kinase PLK1 (Homo sapiens), sequence (P53350 whole entry): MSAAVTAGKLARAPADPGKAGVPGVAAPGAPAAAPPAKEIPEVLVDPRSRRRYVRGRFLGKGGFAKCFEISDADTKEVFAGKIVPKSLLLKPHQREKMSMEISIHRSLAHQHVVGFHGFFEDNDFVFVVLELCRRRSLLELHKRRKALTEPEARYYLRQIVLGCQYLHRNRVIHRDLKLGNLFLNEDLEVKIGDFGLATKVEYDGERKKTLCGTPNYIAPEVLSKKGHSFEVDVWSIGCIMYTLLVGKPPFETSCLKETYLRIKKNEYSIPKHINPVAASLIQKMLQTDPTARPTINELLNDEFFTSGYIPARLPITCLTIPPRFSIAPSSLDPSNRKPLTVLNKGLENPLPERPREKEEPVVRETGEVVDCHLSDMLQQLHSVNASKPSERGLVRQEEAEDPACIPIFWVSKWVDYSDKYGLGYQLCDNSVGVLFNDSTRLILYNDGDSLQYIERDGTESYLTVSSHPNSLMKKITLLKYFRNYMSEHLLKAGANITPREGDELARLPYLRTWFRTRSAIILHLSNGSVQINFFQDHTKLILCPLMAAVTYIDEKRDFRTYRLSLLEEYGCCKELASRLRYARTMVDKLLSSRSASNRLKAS

For the compound `C[C@@H]1C[C@H](C)CN(c2ncc(Cl)c(Nc3ccc4c(c3)cc(OC(C)(C)C(=O)O)c(=O)n4C)n2)C1`, the values for the Kd in [1] and in [2] were 1410 nM (not active) and “No binding”, respectively. Besides, the residual activity in [3] and in test [4] was 95% throughout.

In the case of `CNC(=O)COc1cc2cc(Nc3nc(N4C[C@H](C)C[C@H](C)C4)ncc3Cl)ccc2n(C)c1=O`, the IC50 in test [5] was 43 nM (active). The residual activity in test [6] is 89%; in test [7], 101%; in test [8], 97%; in [9], 89%; in [10] it was 88%; in test [11], 97%. Also, the residual activity in [12] is 111%; in test [13], 100%; in test [14] it was 111%; in test [15], 78%; in test [16], 104%; in [17] it was 118%. For the same compound, the residual activity in [18] is 120%; in test [19], 97%; in test [20] it was 90%; in [21], 83%; in test [22], 94%; in test [23], 92%. Also, the residual activity in test [24] is 106%; in test [25], 89%; in test [26] it was 99%; in test [27], 96%; in test [28], 106%; in test [29], 120%. The inhibition in test [30] was -1.56%; in [31], 0.15%; in test [32] it was 12.5%; in test [33], 11.6%; in test [34], 24.5%; in test [35], 13.3%. Also, the inhibition in test [36] is -2.43%; in test [37], -1.45%; in test [38] it was -7.81%.
